≈ marks a conversion by molar mass, not a printed value. Where “and” joins values, the source holds several entries; their conditions need not be identical. Identical values can stand only once.
How the values were obtained:
[1] = biological target: T1, dihydrofolate reductase (DHFR) (Homo sapiens, UniProt P00374); experiment: DHFR inhibition; type: biochemical
T1 sequence (P00374 1-187): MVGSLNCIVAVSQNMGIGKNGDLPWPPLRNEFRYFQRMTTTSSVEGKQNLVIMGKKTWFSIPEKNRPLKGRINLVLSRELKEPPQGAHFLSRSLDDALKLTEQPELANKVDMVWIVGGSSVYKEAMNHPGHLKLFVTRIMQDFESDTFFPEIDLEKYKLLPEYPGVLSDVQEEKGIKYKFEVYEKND

E. coli [2] = experiment: Checkerboard combination assay with Ciprofloxacin; type: cell-based
S. epidermidis [3] = experiment: Single-step resistance selection; type: cell-based, Staphylococcus epidermidis; details: 4 × MIC, 48 h
S. aureus [4] = experiment: Checkerboard combination assay with Ciprofloxacin; type: cell-based, Staphylococcus aureus
[5] = tested on: all the pathogenic isolates tested; experiment: Time-kill kinetic assay, whole panel; type: cell-based
[6] = tested on: C. albicans100 (MDR00100); experiment: MIC and MFC by broth microdilution; type: cell-based, Candida albicans
B. subtilis (MDR00423) = experiment: MIC and MBC by broth microdilution; type: cell-based
E. coli (MDR00501) [7] = experiment: Agar well-diffusion antimicrobial sensitivity assay; type: cell-based; details: Escherichia coli, read-out: Inhibition Zone (IZ)
E. coli [8] = experiment: Single-step resistance selection; type: cell-based; details: 4 × MIC, 48 h
[9] = tested on: C. albicans200 (MDR00200); experiment: MIC and MFC by broth microdilution; type: cell-based, Candida albicans
S. epidermidis [10] = experiment: Time-kill kinetic assay; type: cell-based, Staphylococcus epidermidis; details: 2 × MIC
S. aureus (MDR00231) [11] = experiment: MIC and MBC by broth microdilution; type: cell-based, Staphylococcus aureus
[12] = tested on: C. albicans200 (MDR00200); experiment: Agar well-diffusion antimicrobial sensitivity assay; type: cell-based, Candida albicans; details: Candida albicans, read-out: Inhibition Zone (IZ)
K. pneumoniae [13] = experiment: Checkerboard combination assay with Ciprofloxacin; type: cell-based
B. subtilis [14] = experiment: Single-step resistance selection; type: cell-based; details: 4 × MIC, 48 h
S. aureus (MDR00231) [15] = experiment: Agar well-diffusion antimicrobial sensitivity assay; type: cell-based, Staphylococcus aureus; details: Staphylococcus aureus, read-out: Inhibition Zone (IZ)
K. pneumoniae (MDR00244) = experiment: MIC and MBC by broth microdilution; type: cell-based; details: ratio in parentheses
[16] = tested on: BNL: mouse normal liver cells; experiment: In vitro cytotoxicity on normal cell line; type: cell-based
[17] = In vitro cytotoxicity on normal cell line; type: cell-based, mouse; details: mouse, BNL normal liver cells
K. pneumoniae [18] = experiment: Time-kill kinetic assay; type: cell-based; details: 2 × MIC
S. aureus [19] = experiment: Single-step resistance selection; type: cell-based, Staphylococcus aureus; details: 4 × MIC, 48 h
E. coli [20] = experiment: Time-kill kinetic assay; type: cell-based
S. aureus biofilm = experiment: Staphylococcus biofilm mass reduction; type: cell-based; details: at their MIC
C. albicans100 [21] = experiment: Checkerboard combination assay with Ketoconazole; type: cell-based, Candida albicans
[22] = tested on: S. epidermidis (MDR00223); experiment: MIC and MBC by broth microdilution; type: cell-based, Staphylococcus epidermidis
C. albicans200 [23] = experiment: Checkerboard combination assay with Ketoconazole; type: cell-based, Candida albicans
B. subtilis [24] = experiment: Checkerboard combination assay with Ciprofloxacin; type: cell-based
[25] = tested on: Vero: green monkey kidney; experiment: In vitro cytotoxicity on normal cell line; type: cell-based
[26] = In vitro cytotoxicity on normal cell line; type: cell-based, green monkey; details: green monkey, Vero kidney cells
K. pneumoniae [27] = experiment: Single-step resistance selection; type: cell-based; details: 4 × MIC, 48 h
C. albicans100 [28] = experiment: Single-step resistance selection; type: cell-based, Candida albicans; details: 4 × MIC, 48 h
[29] = tested on: S. epidermidis (MDR00223); experiment: Agar well-diffusion antimicrobial sensitivity assay; type: cell-based, Staphylococcus epidermidis; details: Staphylococcus epidermidis, read-out: Inhibition Zone (IZ)
[30] = tested on: H9C2: rat heart/myocardium; experiment: In vitro cytotoxicity on normal cell line; type: cell-based
[31] = In vitro cytotoxicity on normal cell line; type: cell-based, rat; details: rat, H9C2 heart/myocardium cells
S. epidermidis biofilm = experiment: Staphylococcus biofilm mass reduction; type: cell-based; details: at their MIC
A. baumannii [32] = experiment: Time-kill kinetic assay; type: cell-based; details: 2 × MIC
B. subtilis [33] = experiment: Time-kill kinetic assay; type: cell-based; details: 2 × MIC
C. albicans200 [34] = experiment: Single-step resistance selection; type: cell-based, Candida albicans; details: 4 × MIC, 48 h
[35] = tested on: clinical pathogenic isolates; experiment: Single-step resistance selection, whole panel; type: cell-based; details: 4 × MIC
RBCs = experiment: Hemolytic assay; type: cell-based; details: human RBCs; compounds 1.0 mg/mL; Triton X-100 0.1% v/v; 37 °C, 35 min
S. epidermidis [36] = experiment: Checkerboard combination assay with Ciprofloxacin; type: cell-based, Staphylococcus epidermidis
A. baumannii (MDR00521) = experiment: MIC and MBC by broth microdilution; type: cell-based; details: ratio in parentheses
E. coli DNA gyrase = E. coli DNA gyrase (Escherichia coli, UniProt P0AES4+P0AES6); experiment: DNA gyrase inhibition; type: biochemical
A. baumannii [37] = experiment: Checkerboard combination assay with Ciprofloxacin; type: cell-based
E. coli (MDR00501) [38] = experiment: MIC and MBC by broth microdilution; type: cell-based
A. baumannii [39] = experiment: Single-step resistance selection; type: cell-based; details: 4 × MIC, 48 h
[40] = tested on: C. albicans100 (MDR00100); experiment: Agar well-diffusion antimicrobial sensitivity assay; type: cell-based, Candida albicans; details: Candida albicans, read-out: Inhibition Zone (IZ)
S. aureus [41] = experiment: Time-kill kinetic assay; type: cell-based, Staphylococcus aureus

Chain of E. coli DNA gyrase (P0AES4 whole entry, one chain of several): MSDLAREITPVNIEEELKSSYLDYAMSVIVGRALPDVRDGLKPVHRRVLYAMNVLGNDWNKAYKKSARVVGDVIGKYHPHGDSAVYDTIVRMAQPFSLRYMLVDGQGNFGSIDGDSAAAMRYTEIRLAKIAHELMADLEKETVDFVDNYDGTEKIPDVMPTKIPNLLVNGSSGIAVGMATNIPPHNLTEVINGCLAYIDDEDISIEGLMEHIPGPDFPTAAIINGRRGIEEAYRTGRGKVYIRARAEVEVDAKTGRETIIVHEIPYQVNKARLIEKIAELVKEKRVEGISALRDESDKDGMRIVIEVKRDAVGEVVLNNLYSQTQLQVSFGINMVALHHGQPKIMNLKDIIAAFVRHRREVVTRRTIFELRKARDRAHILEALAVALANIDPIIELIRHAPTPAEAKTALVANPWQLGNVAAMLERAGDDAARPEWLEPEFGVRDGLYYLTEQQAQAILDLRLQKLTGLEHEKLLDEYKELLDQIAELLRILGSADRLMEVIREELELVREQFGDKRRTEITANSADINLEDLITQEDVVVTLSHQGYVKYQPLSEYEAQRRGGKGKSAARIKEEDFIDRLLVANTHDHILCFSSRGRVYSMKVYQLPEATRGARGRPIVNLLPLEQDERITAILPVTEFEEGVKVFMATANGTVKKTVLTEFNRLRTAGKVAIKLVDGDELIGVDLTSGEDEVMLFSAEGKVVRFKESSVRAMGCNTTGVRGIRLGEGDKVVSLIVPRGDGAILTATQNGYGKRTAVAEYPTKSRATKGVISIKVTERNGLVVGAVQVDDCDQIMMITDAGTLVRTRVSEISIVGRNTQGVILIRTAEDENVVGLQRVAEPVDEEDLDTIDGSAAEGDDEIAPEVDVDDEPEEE

Compound: CCOC(=O)c1c(N)csc1-c1cn(-c2ccccc2)nc1-c1ccc(C)cc1 [Compound 7b, Ethyl 4-Amino-2-(1-phenyl-3-(p-tolyl)-1H-pyrazol-4-yl)thiophene-3-carboxylate]
- IC50 [1]: 0.52 ± 0.2 µM
- combination effect (E. coli [2]): S (S: synergism)
- fractional inhibitory concentration index (FICI) (E. coli [2]): 0.5
- Single-step resistance frequency (mutation frequency) (S. epidermidis [3]): 1.62 × 10^–6
- combination effect (S. aureus [4]): S (S: synergism)
- fractional inhibitory concentration index (FICI) (S. aureus [4]): 0.25
- reduction in the viable cell count relative to the initial inoculum [5]: ≥ 3 log10
- MFC/MIC ([6]; C. albicans100, ratio in parentheses): 1
- MIC ([6]; Candida albicans, read-out: MIC (mean ± SEM), C. albicans100, broth microdilution): 0.25 ± 0.2 µg/mL (≈ 0.62 µM)
- MBC/MIC (B. subtilis (MDR00423); B. subtilis, ratio in parentheses): 1
- MIC (B. subtilis (MDR00423); Bacillus subtilis, read-out: MIC (mean ± SEM), B. subtilis, broth microdilution): 0.23 ± 0.6 µg/mL (≈ 0.57 µM)
- zone of inhibition at 100000 µg/mL (E. coli (MDR00501) [7]): 30 ± 0.5 mm
- Single-step resistance frequency (mutation frequency) (E. coli [8]): 1.90 × 10^–6
- MFC/MIC ([9]; C. albicans200, ratio in parentheses): 0.5
- MIC ([9]; Candida albicans, read-out: MIC (mean ± SEM), C. albicans200, broth microdilution): 0.23 ± 0.3 µg/mL (≈ 0.57 µM)
- time after which cells were rapidly reduced (S. epidermidis [10]): 12 h
- MBC/MIC (S. aureus (MDR00231) [11]; S. aureus, ratio in parentheses): 0.5
- MIC (S. aureus (MDR00231) [11]; Staphylococcus aureus, read-out: MIC (mean ± SEM), S. aureus, broth microdilution): 0.22 ± 0.3 µg/mL (≈ 0.545 µM)
- zone of inhibition at 100000 µg/mL [12]: 32 ± 0.32 mm
- combination effect (K. pneumoniae [13]): S (S: synergism)
- fractional inhibitory concentration index (FICI) (K. pneumoniae [13]): 0.5
- Single-step resistance frequency (mutation frequency) (B. subtilis [14]): 1.30 × 10^–7
- zone of inhibition at 100000 µg/mL (S. aureus (MDR00231) [15]): 33 ± 0.32 mm
- MBC/MIC (K. pneumoniae (MDR00244)): 1
- Selectivity index against DHFR ([16]; IC50 of BNL / IC50 of DHFR): 198.65
- Selectivity index against DNA gyrase ([16]; IC50 of BNL / IC50 of DNA gyrase): 8.41
- IC50 at 72 h [17]: 103 ± 1.51 µM
- time after which cells were rapidly reduced (K. pneumoniae [18]): 12 h
- Single-step resistance frequency (mutation frequency) (S. aureus [19]): 1.34 × 10^–6
- time of maximum reduction (E. coli [20]; 1/2 × MIC): 24 h
- time after which cells were rapidly reduced (E. coli [20]; 2 × MIC): 4 h
- reduction of biofilm formation (S. aureus biofilm): 67%
- combination effect (C. albicans100 [21]): S (S: synergism)
- fractional inhibitory concentration index (FICI) (C. albicans100 [21]): 0.5
- MBC/MIC ([22]; S. epidermidis, ratio in parentheses): 0.5
- MIC ([22]; Staphylococcus epidermidis, read-out: MIC (mean ± SEM), S. epidermidis, broth microdilution): 0.24 ± 0.2 µg/mL (≈ 0.595 µM)
- combination effect (C. albicans200 [23]): S (S: synergism)
- combination effect (B. subtilis [24]): S (S: synergism)
- fractional inhibitory concentration index (FICI) (B. subtilis [24]): 0.5
- Selectivity index against DHFR ([25]; IC50 of Vero / IC50 of DHFR): 151.61
- Selectivity index against DNA gyrase ([25]; IC50 of Vero / IC50 of DNA gyrase): 6.42
- IC50 at 72 h [26]: 78.8 ± 1.1 µM
- Single-step resistance frequency (mutation frequency) (K. pneumoniae [27]): 1.67 × 10^–7
- Single-step resistance frequency (mutation frequency) (C. albicans100 [28]): 2.51 × 10^–6
- zone of inhibition at 100000 µg/mL [29]: 31 ± 0.16 mm
- Selectivity index against DHFR ([30]; IC50 of H9C2 / IC50 of DHFR): 195.44
- Selectivity index against DNA gyrase ([30]; IC50 of H9C2 / IC50 of DNA gyrase): 8.28
- IC50 at 72 h [31]: 102 ± 1.39 µM
- reduction of biofilm formation (S. epidermidis biofilm): 58%
- time after which cells were rapidly reduced (A. baumannii [32]): 8 h
- time after which cells were rapidly reduced (B. subtilis [33]): 12 h
- Single-step resistance frequency (mutation frequency) (C. albicans200 [34]): 3.10 × 10^–6
- mutation frequency, range over panel [35]: 1.34 × 10^–6 to 1.67 × 10^–7
- %lysis of RBCs (RBCs): 3.23% and 3.23 ± 0.58%
- combination effect (S. epidermidis [36]): S (S: synergism)
- fractional inhibitory concentration index (FICI) (S. epidermidis [36]): 0.25
- MBC/MIC (A. baumannii (MDR00521)): 1
- IC50 (E. coli DNA gyrase): 12.3 ± 0.34 µM
- combination effect (A. baumannii [37]): S (S: synergism)
- fractional inhibitory concentration index (FICI) (A. baumannii [37]): 0.25
- MBC/MIC (E. coli (MDR00501) [38]; E. coli, ratio in parentheses): 0.5
- MIC (E. coli (MDR00501) [38]; Escherichia coli, read-out: MIC (mean ± SEM), E. coli, broth microdilution): 0.23 ± 0.1 µg/mL (≈ 0.57 µM)
- Single-step resistance frequency (mutation frequency) (A. baumannii [39]): 2.11 × 10^–6
- zone of inhibition at 100000 µg/mL [40]: 31 ± 0.11 mm
- time of maximum reduction (S. aureus [41]; 1/2 × MIC): 24 h
- time after which cells were rapidly reduced (S. aureus [41]; 2 × MIC): 8 h

From PMC8851638 (ACS Omega, 2022)
